Experimental data published in US20260109707A1, “HETEROBIFUNCTIONAL COMPOUNDS AND METHODS OF TREATING DISEASE” (Halda Therapeutics OpCo. Inc., priority 2022, published 2026).

Legend:
[1] = test system: T-Rex 293 cell line SC3 cells having increased expression of androgen receptor protein due to exposure to doxycycline; assay: Cellular growth inhibition assay, T-Rex 293 SC3 cells with doxycycline (CellTiter-Glo, 72 hours); assay type: cell-based; details: 72 h, T-Rex 293 SC3 cells with increased androgen receptor expression due to doxycycline (10 ng/mL)
How it was run: (§1)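 Doxycycline (10 ng/mL) was either included or omitted to toggle wild-type androgen receptor expression in SC3 cells, a T-Rex 293 clone, grown in stripped-serum, phenol red-free medium. After 72 hours with compound, viable cells were quantified by CellTiter-Glo 2.0.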

[2] = test system: T-Rex 293 cell line SC3 cells lacking increased expression of androgen receptor protein; assay: Cellular growth inhibition assay, T-Rex 293 SC3 cells without doxycycline (CellTiter-Glo, 72 hours); assay type: cell-based; details: 72 h, T-Rex 293 cell line SC3 cells not exposed to doxycycline (lacking increased androgen receptor expression)
How it was run: as §1

VCaP cells = assay: Cellular growth inhibition assay for VCaP cells (CellTiter-Glo, 72 hours); assay type: cell-based, human; details: Homo sapiens, VCaP, 72 h
How it was run: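 Luminescent viability signal after 72 h of compound exposure gave GI50 values by four-parameter nonlinear regression. Compounds were added in 0.5% DMSO to cells plated 24 h earlier at 5000/well in DMEM containing 10% FBS.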

T47D cells = assay: Cellular growth inhibition assay for T47D cells (CellTiter-Glo, 72 hours); assay type: cell-based, human; details: Homo sapiens, T47D, 72 h, 72 hours treatment
How it was run: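 Luminescence from CellTiter-Glo 2.0 after 72 h of compound exposure gives the viability signal. Cells grew in insulin-supplemented (0.2 units/mL) DMEM with 10% FBS and were treated one day after seeding at 0.5% DMSO. GI50 values come from four-parameter nonlinear regression.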

| SMILES | GI50 (VCaP cells) [nM] | GI50 (T47D cells) [nM] | GI50 [1] [nM] | GI50 [2] [nM] |
| --- | --- | --- | --- | --- |
| Cc1sc2c(c1C)C(c1ccc(CC3CC(C4CCCN(c5ccc(C(=O)N[C@H]6CC[C@H](Oc7ccc(C#N)c(Cl)c7)CC6)nn5)C4)C3)cc1)=N[C@@H](Cc1ncco1)c1nnc(C)n1-2 (stereo partly shown) [I-122] | < 500 | < 500 | < 500 | < 500 |
| Cc1sc2c(c1C)C(c1ccc(C[C@H]3CC[C@@]4(CCCN(c5ccc(C(=O)N[C@H]6CC[C@H](Oc7ccc(C#N)c(Cl)c7)CC6)nn5)C4)C3)cc1)=N[C@@H](Cc1ncco1)c1nnc(C)n1-2 [I-123] | 1500 to 3000 | 1500 to 3000 | 1500 to 3000 | > 3000 |
| Cc1sc2c(c1C)C(c1ccc(C[C@@H]3CC[C@@]4(CCCN(c5ccc(C(=O)N[C@H]6CC[C@H](Oc7ccc(C#N)c(Cl)c7)CC6)nn5)C4)C3)cc1)=N[C@@H](Cc1ncco1)c1nnc(C)n1-2 [I-125] | < 500 | < 500 | < 500 | < 500 |
| Cc1sc2c(c1C)C(c1ccc(CCCN3CCCN(c4ccc(C(=O)N[C@H]5CC[C@H](Oc6ccc(C#N)c(Cl)c6)CC5)nn4)CC3)cc1)=N[C@@H](Cc1ncco1)c1nnc(C)n1-2 [I-126] | < 500 | < 500 | < 500 | < 500 |
| Cc1sc2c(c1C)C(c1ccc(N3CC4(CCN(c5ccc(C(=O)NC6CCC(Oc7ccc(C#N)c(Cl)c7)CC6)nn5)CC4)C3)cc1)=N[C@@H](Cc1ncco1)c1nnc(C)n1-2 (stereo partly drawn) [I-132, N-[4-(3-chloro-4-cyano-phenoxy)cyclohexyl]-6-[2-[4-[(9S)-4,5,13-trimethyl-9-(oxazol-2-ylmethyl)-3-thia-1,8,11,12-tetrazatricyclo[8.3.0.02,6]trideca-2(6),4,7,10,12-pentaen-7-yl]phenyl]-2,7-diazaspiro[3.5]nonan-7-yl]pyridazine-3-carboxamide] | < 500 | < 500 | < 500 | < 500 |
| Cc1sc2c(c1C)C(c1ccc(OC3CC4(CCN(c5ccc(C(=O)N[C@H]6CC[C@H](Oc7ccc(C#N)c(Cl)c7)CC6)nn5)CC4)C3)cc1)=N/C(=C/c1ncco1)c1nnc(C)n1-2 [I-135, N-[4-(3-chloro-4-cyano-phenoxy)cyclohexyl]-6-[2-[4-[(9E)-4,5,13-trimethyl-9-(oxazol-2-ylmethylene)-3-thia-1,8,11,12-tetrazatricyclo[8.3.0.02,6]trideca-2(6),4,7,10,12-pentaen-7-yl]phenoxy]-7-azaspiro[3.5]nonan-7-yl]pyridazine-3-carboxamide] | < 500 | > 3000 | < 500 | > 3000 |

More lines, main results first:

| GI50 (VCaP cells) [nM] | GI50 (T47D cells) [nM] | SMILES | GI50 [1] [nM] | GI50 [2] [nM] |
| --- | --- | --- | --- | --- |
| < 500 | < 500 | Cc1sc2c(c1C)C(c1ccc(C[C@H]3CC[C@]4(CCCN(c5ccc(C(=O)N[C@H]6CC[C@H](Oc7ccc(C#N)c(Cl)c7)CC6)nn5)C4)C3)cc1)=N[C@@H](Cc1ncco1)c1nnc(C)n1-2 [I-124] | < 500 | < 500 |
| < 500 | 500 to 1500 | Cc1sc2c(c1C)C(c1ccc(C[C@H]3C[C@H]([C@H]4CCCN(c5ccc(C(=O)N[C@H]6CC[C@H](Oc7ccc(C#N)c(Cl)c7)CC6)nn5)C4)C3)cc1)=N[C@@H](Cc1ncco1)c1nnc(C)n1-2 [I-131] | < 500 | < 500 |
| < 500 | < 500 | Cc1sc2c(c1C)C(c1ccc(C#CCC3CCN(c4ccc(C(=O)N[C@H]5CC[C@H](Oc6ccc(C#N)c(Cl)c6)CC5)nn4)CC3)cc1)=N[C@@H](Cc1ncco1)c1nnc(C)n1-2 [I-136, N-[4-(3-chloro-4-cyano-phenoxy)cyclohexyl]-6-[4-[3-[4-[(9S)-4,5,13-trimethyl-9-(oxazol-2-ylmethyl)-3-thia-1,8,11,12-tetrazatricyclo[8.3.0.02,6]trideca-2(6),4,7,10,12-pentaen-7-yl]phenyl]prop-2-ynyl]-1-piperidyl]pyridazine-3-carboxamide] | < 500 | < 500 |
| 500 to 1500 | 1500 to 3000 | Cc1sc2c(c1C)C(c1ccc(C#CCC3CCN(c4ccc(C(=O)N[C@H]5CC[C@H](Oc6ccc(C#N)c(Cl)c6)CC5)nn4)CC3)cc1)=N[C@H](Cc1ncco1)c1nnc(C)n1-2 [I-137] | < 500 | > 3000 |
